For orientation: AC50 means the concentration at which the activity in the assay is half-maximal.

Molecules are shown by their SMILES. Activity calls are given as the source filed them.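 The calls were made as follows: active = AC50 no more than ten times the top concentration tested, that is within one log above it; inconclusive = flat curve fit with activity between 30% and 70%, or invalid poor fit; inactive = AC50 beyond ten times the top tested dose.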 Where only a bound is given, the exact number is not on record here.

In the assay the test system is S. cerevisiae Mot1-301 ts growth rescue, BacTiter-Glo ATP luminescence. Briefly: growth rescue of Mot1-301 ts yeast, confirmation, SUMOylation pathway inhibitor project, whole organism, S. cerevisiae, Mot1-301 ts mutant, luminescence, dose retest (AID 463204).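 Also: growth at restrictive 38.5 degrees C of Mot1-301 OY566 strain; actives raise luminescence by restoring growth of the ts mutant at high temperature.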
`Cc1nc(-c2ccncc2)sc1C(=O)Nc1ccc(Br)cc1`: the AC50 was > 42 µM (inactive).
On to `COc1cc([N+](=O)[O-])cc(/C=N/NC(=O)c2cc(C)nc3ccccc23)c1O`, for which the AC50 is > 42 µM (inactive).
As to `Cc1nc2sc(C(c3ccccc3)N3CCC(O)CC3)c(O)n2n1` (stereo not given), the AC50 is > 42 µM (inactive).
On to `Cc1ccccc1-c1nc(CN2CCCC(C(=O)NCc3cccnc3)C2)c(C)o1` (stereo not given), for which the AC50 is > 42 µM (inactive).
The figure for `CCN(CC)C(=O)Cn1c(=O)n(CCCC(=O)NCc2ccccc2)c(=O)c2sccc21` is > 42 µM (inactive); for `CN1C(=O)C(O)(CC(=O)c2ccccc2O)c2cc(Br)ccc21` (stereo not given) it is > 42 µM (inactive); for `COCCNC(=O)C(c1ccc(C)cc1)N(C(=O)CCC(=O)Nc1ccccn1)c1cccc(C)c1` (stereo not given) it is > 42 µM (inactive).
Then `CCCSc1nc(=O)n2cccc(C)c2n1`, with > 42 µM (inactive).
Then `Cc1cc(NC(=O)CSc2ncn(-c3ccccc3)n2)no1`, with > 42 µM (inactive); and `Cc1ccc(S(=O)(=O)NCCS(=O)(=O)N2CCN(c3ccc(F)cc3)CC2)cc1`, with > 42 µM (inactive).
Regarding `COc1cccc(C2CC(c3cccc(NS(C)(=O)=O)c3)=NN2C(=O)c2ccccc2)c1OC` (stereo not given), the AC50 was > 42 µM (inactive).
Consider `COc1ccccc1N1C(=O)c2ccccc2NC1C(OC)OC` (stereo not given), for which the AC50 was > 42 µM (inactive).
Turning to `COC(=O)c1ccc(NC(=O)CCN2CCN(c3ccccc3)CC2)cc1`, the AC50 was > 42 µM (inactive).
Take `COC(=O)c1sc2ccccc2c1NC(=O)c1ccc(S(=O)(=O)N2CCCC(C)C2)cc1` (stereo not given): the AC50 was > 42 µM (inactive).
As to `O=Cc1cn(Cc2ccccc2F)c2ccccc12`, the AC50 was > 42 µM (inactive).
On to `COc1cc(NC(=O)c2ccccc2F)c(OC)cc1NC(=O)CN1CCCCC1`, for which the AC50 was > 42 µM (inactive).
`Cn1c(=O)[nH]c(=O)c2c1nc(Sc1ccccc1)n2CCc1ccccc1`: the AC50 was > 42 µM (inactive).
Turning to `COc1cc(CN2CCCC(CO)(Cc3cccc(Cl)c3)C2)cc2c1OCO2` (stereo not given), the AC50 was > 42 µM (inactive).
Take `O=C(CCS(=O)(=O)c1ccc(Br)s1)NCc1ccccc1`: the AC50 is > 42 µM (inactive).
Then `CCCc1nc2c(nnn2Cc2ccccc2F)c(=O)[nH]1`, with > 42 µM (inactive); and `Cc1ccc(SCCNC(=O)CN2C(=O)c3ccccc3S2(=O)=O)cc1`, with > 42 µM (inactive).
Then `O=C(COC(=O)/C=C/c1ccco1)Nc1ncc(C(F)(F)F)cc1Cl`, with > 42 µM (inactive); and `CN(C)S(=O)(=O)c1cccc(NC(=O)C(c2ccccc2)c2ccccc2)c1`, with > 42 µM (inactive).
The figure for `CC(C)CCOCc1nc2sc3c(c2c(=O)[nH]1)CCC(C)C3` (stereo not given) is > 42 µM (inactive); for `CCOC(=O)c1c(C)n(C)c2cc(-c3ccc(C)cc3)c(O)cc12` it is > 42 µM (inactive).
Take `Fc1cccc(F)c1-c1nc(-c2ccncc2)no1`: the AC50 is > 42 µM (inactive).
Consider `CCCCC(O)(c1ccc(F)cc1)C(CN1CCOCC1)c1ccc(Cl)cc1` (stereo not given), for which the AC50 was 5.49 µM.
Consider `C=CCNC(=O)NC(=O)COC(=O)CCCSc1nc2ccccc2[nH]1`, for which the AC50 is > 42 µM (inactive).
For the compound `CN1c2ccccc2-c2nc3ccccc3n2C1c1ccncc1` (stereo not given), the AC50 is > 42 µM (inactive).
For the compound `CCNCc1nc2cc(Cl)ccc2c(=O)[nH]1`, the AC50 was > 42 µM (inactive).
As to `COc1ccc(-c2nc(C#N)c(NC(C)c3ccccc3)o2)cc1OC` (stereo not given), the AC50 was > 42 µM (inactive).
Turning to `CCCc1nn2c(=O)cc(CSCC(=O)Nc3ccc(OC)cc3)nc2s1`, the AC50 was > 42 µM (inactive).
The figure for `CN(C)S(=O)(=O)c1ccc(C(=O)/C=C/c2cccnc2)cc1` is > 42 µM (inactive); for `Cc1cc(C)c(S(=O)(=O)c2cccc(C)c2C)c(=O)[nH]1` it is > 42 µM (inactive).
As for `COc1ccc(-c2csc(NC(=O)C3CSC4(C)CCC(=O)N34)n2)cc1` (stereo not given), the AC50 was > 42 µM (inactive).

The values above are taken from PubChem BioAssay AID463204 (Broad Institute, 2010).
